Assays:
[1] = in vivo; settings: male, Wistar, rat, in vivo, iv
Procedure: A saline solution (0.9% NaCl) was added to a mixture of cinnamaldehyde (density = 1.05 g/mL) and Cremophor® RH 40 (1:1 v/v) in order to obtain a 12.5 mg/mL cinnamaldehyde emulsion in the presence of ethanol (10% of final volume). A group (n = 4) of male Wistar rats (200–250 g) fasted for 24 h was anesthetized during the experimental period and received 0.4 mL via a femoral intravenous infusion (rate = 0.2 mL/min; 2 min) of 12.5 mg/mL cinnamaldehyde emulsion (20 mg/kg cinnamaldehyde dose).
(§1) At the end of the infusions and at fixed time points, CSF samples (50 μL) were withdrawn and blood samples (100 μL) were collected. The CSF was withdrawn using the cisternal puncture method described by van den Berg et al., which requires a single needle stick and allows the collection of serials (40–50 μL) CSF samples that are virtually blood-free. A total volume of about a maximum of 150 μL of CSF/rat (i.e., three 50 μL samples/rat) was collected during the experimental session, choosing the time points (n = 3–5, taking into account a maximum of three collections per rat) in order to allow the restoring of the CSF physiological volume.
The chromatographic apparatus consisted of a modular system (model LC-10 AD VD pump and model SPD-10A VP variable wavelength UV−vis detector; Shimadzu, Kyoto, Japan) and an injection valve with 20 μL sample loop (model 7725; Rheodyne, IDEX, Torrance, CA, USA). Separations were performed at room temperature on a 5 μm Hypersil BDS C-18 column (150 mm × 4.6 mm i.d.; Alltech Italia Srl, Milan, Italy) equipped with a guard column packed with the same Hypersil material. The volume injection was 10 μL. Data acquisition and processing were performed on a personal computer using CLASS-VP Software, version 7.2.1 (Shimadzu Italia, Milan, Italy).
For CSF simulation, standard aliquots of balanced solution (Dulbecco’s phosphate buffer saline—DPBS—without calcium and magnesium) in the presence of 0.45 mg/mL BSA were used.

[2] = system: PC12 cells; assay: MTT cell viability assay in neuronal differentiated PC12 cells; type: cell-based, rat; settings: 2 h
Procedure: PC12 cell line (RRID:CVCL_0481), derived from rat adrenal gland pheochromocytoma, was a kind gift from Dr Federica Brugnoli from the Department of Translational Medicine, University of Ferrara, Ferrara (Italy). The cells were grown in RPMI-1640 (HiGlutaXL) medium (Microtech, Naples, Italy), supplemented with 100 µg/mL streptomycin and 100 IU/mL penicillin, 10% horse serum (HS), and 5% fetal bovine serum (FBS). PC12 cells were gently removed from the 4 µg/cm^2 collagen IV-coated flask with a rubber scraper, transferred as cell suspension into a Falcon tube and resuspended through a sterile tip to avoid any clumping, then split into separate flasks twice weekly. To differentiate neuronal phenotypes, PC12 cells were seeded in 4 µg/cm^2 collagen IV-coated 12-well plates at a density of 5000 cells/well, and they were then left to adhere to the well for 24 h. […] All the proliferative and differentiated cultures were maintained at 37 °C in a humidified 5% CO2 atmosphere.
The 100% of cell viability was stated as control in the absence of compound. Then, incubation buffer was withdrawn, and 0.2 mL per well of a solution of MTT 500 µg/mL was added to each well and kept for 2 h at 37 °C in a humidified atmosphere at 95% with 5% CO2. After the conversion of the substrate to a chromogenic product by metabolically active cells, the MTT solution was removed, and the purple MTT formazan crystals were solubilized with 0.1 mL/well of DMSO for 60 min at 37 °C. The absorbance of each sample was measured with a multiplate reader spectrophotometer (Sunrise® Microplate Reader, Tecan Trading AG, Männedorf, Switzerland) at 570 nm, using 690 nm as a reference wavelength. Cell viability, proportional to absorbance, was reported as ratio between the absorbance resulting from the treatments and absorbance resulting from the control, considered as 100% of viable cells. Data were plotted as graphs and analyzed using GraphPad software (Prism, version 7.0, San Diego, CA, USA).

[3] = in vivo; settings: rat, po
Procedure: as §1
(§2) Each type of formulation was administered to a group of four rats.
(§3) In particular, 4.2 mL of EU-CD formulation were administered to rats (500 mg/kg dose).
(§4) In particular, 320 μL of EU-SL formulation were administered to rats (500 mg/kg dose).
(§5) Free cinnamaldehyde (100 mg) was orally administered by gavage to rats kept fasting since 24 h. In particular, 95 μL of cinnamaldehyde (density = 1.05 g/mL) were dissolved in 905 μL of corn oil and administered to rats (400 mg/kg dose).
(§6) The solid AC-GN formulation (14% w/w cinnamaldehyde) was mixed with palatable food in order to induce their oral intake by the rats kept fasting since 24 h. In particular, the rats assumed a dose of 100 mg of cinnamaldehyde (400 mg/kg) contained in 714 mg of AC-GN.
(§7) After the administrations, blood (100 μL) and CSF samples (50 μL) were serially collected at fixed time points from each rat and treated as described above in order to quantify the compounds.

[4] = in vivo; settings: Wistar, rat
Procedure: as §2, §3, §4, §5, §6, §7
In particular, all the AUC values referred to the bloodstream were calculated by the trapezoidal method within the last time point detected, and the remaining area was obtained as the ratio between the compound concentration detected at the last time point and the elimination constant (kel), which was obtained from the slope of the semilogarithmic plots (−slope × 2.3). The clearance (Cl) and distribution volume (Vd) values were calculated according to the non-compartmental model as the ratios “dose/AUC” and “Cl/kel”, respectively, where kel is the elimination constant obtained by the slope of semilogarithmic plot.

[5] = system: rats; settings: cited from earlier work

Structure (SMILES): C=CCc1ccc(O)c(OC)c1 [Eugenol]
- Tmax: time of Cmax in CSF [1]: 10 min
- AUC ([1]; 20 mg/kg): 935 ng·h/mL
- Cmax ([1]; 20 mg/kg): 2790 ± 180 ng/mL
- time within which CSF concentrations decreased to zero or near to zero ([1]; 20 mg/kg): ≤ 45 min
- Kp at 10 min ([1]; R: ratio of concentration between CSF and bloodstream at Tmax): 0.96
- increase of cell viability over the untreated cell value ([2]; 25 µM, 37 °C, NGF-differentiated PC12): 2.5 times
- effect on cell viability compared to untreated control ([2]; 2, 25, 50 and 100 µM, p < 0.0001, no toxic impact): statistically significant increase in cell viability
- most effective concentration in increasing cell viability ([2]; tested 2, 25, 50 and 100 µM): 25 µM
- AUC [3]: 516 ng·h/mL
- Tmax: time of Cmax in CSF [3]: 20 min
- Tmax: time of Cmax in the bloodstream [4]: 10 min
- bioavailability ([4]; po, F: absolute bioavailability, oral versus iv AUC normalized to dose): 4%
- oral LD50 ([5]; oral): about 2 g/kg
- intravenous doses inducing anesthetic effects without relevant side effects ([5]; rat, in vivo, iv): up to 60 mg/kg
